ChEMBL document CHEMBL1128776, “Palladium-catalyzed synthesis of (E)-5-(2-acylvinyl)-2-deoxyuridines and their antiviral and cytotoxic activities” (Bioorg Med Chem Lett, 1995)
Converted amounts (≈) assume the structure as drawn.

Experiments:
[1] = system: E6SM; assay: Evaluated in vitro for its antiviral activity in E6 cell cultures against herpes simplex virus type 1 (HSV-1) TK- B2006; assay type: functional; settings: Homo sapiens
[2] = system: E6SM; assay: Evaluated in vitro for its antiviral activity in E6 cell cultures against herpes simplex virus type 1 (HSV-1) TK- VMW 1837; assay type: functional; settings: Homo sapiens
[3] = system: E6SM; assay: Evaluated in vitro for its antiviral activity in E6 cell cultures against herpes simplex virus type 1 (HSV-1) strain KOS; assay type: functional; settings: Homo sapiens
[4] = system: E6SM; assay: Evaluated in vitro for its antiviral activity in E6 cell cultures against herpes simplex virus type 2 (HSV-2) strain G; assay type: functional; settings: Homo sapiens
[5] = system: E6SM; assay: Evaluated in vitro for its antiviral activity in E6 cell cultures against vaccinia virus (VV); assay type: functional; settings: Homo sapiens
[6] = system: E6SM; assay: Evaluated in vitro for its antiviral activity in E6 cell cultures against vesicular stomatitis virus (VSV); assay type: functional; settings: Homo sapiens
[7] = system: E6SM; assay: Minimum cytotoxic concentration against E6SM cells; assay type: functional; settings: Homo sapiens
[8] = system: HEL; assay: Evaluated in vitro for antiviral activity in human embryonic lung (HEL) cell cultures against TK- Varicella-Zoster virus (VZV) strain YS/R; assay type: functional, cell-based
[9] = system: HEL; assay: Evaluated in vitro for antiviral activity in human embryonic lung (HEL) cell cultures against […] TK- strain 07/1; assay type: functional, cell-based
[10] = system: HEL; assay: Evaluated in vitro for antiviral activity in human embryonic lung (HEL) cell cultures against Varicella-Zoster virus (VZV) strain YS; assay type: functional, cell-based
[11] = system: HEL; assay: Cytotoxic concentration required to reduce cell growth HEL cells (after 3 days) by 50 %; assay type: functional; settings: Homo sapiens, 72 h
[12] = system: HEL; assay: Minimum cytotoxic concentration against human embryonic lung (HEL) cells; assay type: functional
[13] = system: HEL; assay: Evaluated in vitro for antiviral activity in HeLa cell cultures against polio virus type 1; assay type: functional; settings: Homo sapiens
[14] = system: HEL; assay: Evaluated in vitro for antiviral activity in HeLa cell cultures against vesicular stomatitis virus (VSV); assay type: functional; settings: Homo sapiens
[15] = system: HeLa; assay: Minimum cytotoxic concentration against HeLa cells; assay type: functional; settings: Homo sapiens
[16] = system: Vero; assay: Minimum cytotoxic concentration against vero cells; assay type: functional; settings: Chlorocebus sabaeus
[17] = system: Vero; assay: Evaluated in vitro for antiviral activity in vero cell cultures against Coxsackie virus type B4; assay type: functional; settings: Chlorocebus sabaeus
[18] = system: Vero; assay: Evaluated in vitro for antiviral activity in vero cell cultures against Parainfluenza virus type 3; assay type: functional; settings: Chlorocebus sabaeus
[19] = system: Vero; assay: Evaluated in vitro for antiviral activity in vero cell cultures against Reovirus type 1; assay type: functional; settings: Chlorocebus sabaeus
[20] = system: Vero; assay: Evaluated in vitro for antiviral activity in vero cell cultures against forest virus; assay type: functional; settings: Chlorocebus sabaeus
[21] = system: Vero; assay: Evaluated in vitro for antiviral activity in vero cell cultures against Sindbis virus; assay type: functional; settings: Chlorocebus sabaeus
[22] = system: HEL; assay: Evaluated in vitro for antiviral activity in human embryonic lung (HEL) cell cultures against TK+ VZV strain OKA; assay type: functional, cell-based
[23] = system: CCRF-CEM; assay: 50% effective concentration required to protect CEM cells against the cytopathogenicity of HIV-2; assay type: functional, cell-based; settings: Homo sapiens
[24] = system: CCRF-CEM; assay: Evaluated in vitro for cytostatic activity against CEM cells; assay type: functional, cell-based; settings: Homo sapiens
[25] = system: E6SM; assay: In vitro antiviral activity in E6 cell cultures against herpes simplex virus type 1 (HSV-1) TK- B2006; assay type: functional; settings: Homo sapiens
[26] = system: E6SM; assay: In vitro antiviral activity in E6 cell cultures against herpes simplex virus type 1 (HSV-1) TK- VMW 1837; assay type: functional; settings: Homo sapiens
[27] = system: E6SM; assay: In vitro antiviral activity in E6 cell cultures against herpes simplex virus type 1 (HSV-1) strain KOS; assay type: functional; settings: Homo sapiens
[28] = system: E6SM; assay: In vitro antiviral activity in E6 cell cultures against herpes simplex virus type 2 (HSV-2) strain G; assay type: functional; settings: Homo sapiens
[29] = system: E6SM; assay: In vitro antiviral activity in E6 cell cultures against vaccinia virus (VV); assay type: functional; settings: Homo sapiens
[30] = system: E6SM; assay: In vitro antiviral activity in E6 cell cultures against vesicular stomatitis virus (VSV); assay type: functional; settings: Homo sapiens
[31] = system: FM3A; assay: Evaluated in vitro for cytostatic activity against murine mammary carcinoma cells (FM3A); assay type: functional, cell-based; settings: Mus musculus
[32] = system: HEL; assay: Evaluated in vitro for antiviral activity in human embryonic lung (HEL) cell cultures against TK- VZV strain 07/1; assay type: functional, cell-based
[33] = system: HEL; assay: Evaluated in vitro for antiviral activity in human embryonic lung (HEL) cell cultures against cytomegalovirus (CMV) strain Davis; assay type: functional, cell-based
[34] = system: HEL; assay: (§1) Evaluated in vitro for antiviral activity in human embryonic lung (HEL) cell cultures against cytomegalovirus (CMV) strain AD-169; assay type: functional
[35] = system: MOLT-4; assay: Evaluated in vitro for cytostatic activity against human T-lymphocyte cells (Molt 4/C8); assay type: functional, cell-based
[36] = system: L1210; assay: Evaluated in vitro for cytostatic activity against murine leukemia cells (L1210); assay type: functional, cell-based; settings: Mus musculus
[37] = system: CCRF-CEM; assay: 50% effective concentration required to protect CEM cells against the cytopathogenicity of HIV-1; assay type: functional, cell-based; settings: Homo sapiens
[38] = system: HEL; assay: Evaluated in vitro for antiviral activity in human embryonic lung (HEL) cell cultures against TK - VZV strain OKA; assay type: functional, cell-based
[39] = system: HEL; assay: Evaluated in vitro for antiviral activity in human embryonic lung (HEL) cell cultures against TK + VZV strain OKA; assay type: functional, cell-based
[40] = system: HEL; assay: Evaluated in vitro for antiviral activity in human embryonic lung (HEL) cell cultures against TK+ Varicella-Zoster virus (VZV) strain YS; assay type: functional, cell-based
[41] = system: HEL; assay: as §1; assay type: functional, cell-based

SMILES | MCC [7] [µg/mL] | IC50 [8] [µg/mL] | IC50 [10] [µg/mL] | CC50 [11] [µg/mL] | MCC [12] [µg/mL] | MIC [13] [µg/mL] | MIC [14] [µg/mL] | MCC [15] [µg/mL] | MCC [16] [µg/mL] | MIC [17] [µg/mL] | MIC [18] [µg/mL] | MIC [19] [µg/mL] | MIC [20] [µg/mL] | MIC [21] [µg/mL] | IC50 [22] [µg/mL] | EC50 [23] [µg/mL] | IC50 [24] [µg/mL] | MIC [25] [µg/mL] | MIC [26] [µg/mL] | IC50 [33] [µg/mL] | also measured
O=c1[nH]c(=O)n([C@H]2C[C@H](O)[C@@H](CO)O2)cc1/C=C/Br [BRIVUDINE] | > 400 | > 50 | 0.002 (≈ 0.006 µM) | 150 (≈ 450 µM) | > 50 | > 400 | > 400 | > 400 | > 400 | > 400 | > 400 | > 400 | > 400 | > 400 | 0.0008 (≈ 0.0024 µM) |  |  |  |  |  | MIC [1]: > 400 µg/mL; MIC [2]: > 400 µg/mL; MIC [3]: 0.02 µg/mL (≈ 0.06 µM); MIC [4]: 100 µg/mL (≈ 300 µM); MIC [5]: 10 µg/mL (≈ 30 µM); MIC [6]: > 400 µg/mL; IC50 [9]: 5 µg/mL (≈ 15 µM)
COc1ccc(C(=O)/C=C/c2cn([C@H]3C[C@H](O)[C@@H](CO)O3)c(=O)[nH]c2=O)cc1 | 40 | > 20 | > 20 | > 200 | 20 | > 100 | > 100 | 20 | 100 | > 40 | > 40 | > 40 | > 40 | > 40 | > 20 | > 40 | > 100 | > 10 | > 10 | > 5 | MIC [27]: > 10 µg/mL; MIC [28]: > 10 µg/mL; MIC [29]: > 10 µg/mL; MIC [30]: > 10 µg/mL; IC50 [31]: > 100 µg/mL; IC50 [32]: > 20 µg/mL; MIC [34]: > 5 µg/mL; IC50 [35]: > 100 µg/mL; IC50 [36]: > 100 µg/mL; EC50 [37]: > 40 µg/mL
O=C(/C=C/c1cn([C@H]2C[C@H](O)[C@@H](CO)O2)c(=O)[nH]c1=O)c1ccccc1 | 40 | > 20 | > 20 | 140 (≈ 391 µM) | 50 | > 100 | 70 (≈ 195 µM) | 20 | 400 | > 200 | > 200 | > 200 | > 200 | > 200 |  | > 20 | 24 (≈ 67 µM) | > 10 | > 10 | > 20 | MIC [27]: > 10 µg/mL; MIC [28]: > 10 µg/mL; MIC [29]: > 10 µg/mL; MIC [30]: > 10 µg/mL; IC50 [31]: 32 µg/mL (≈ 89.3 µM); IC50 [38]: > 20 µg/mL; IC50 [39]: > 20 µg/mL; MIC [34]: > 20 µg/mL; IC50 [35]: 23 µg/mL (≈ 64.2 µM); IC50 [36]: 30 µg/mL (≈ 83.7 µM); EC50 [37]: > 20 µg/mL
Nc1ccn(C[C@@H](CO)OCP(=O)(O)O)c(=O)n1.O.O [CIDOFOVIR] |  | 0.05 |  | > 200 | > 50 |  |  |  |  |  |  |  |  |  | 0.065 |  |  |  |  | 0.075 | IC50 [40]: 0.09 µg/mL; IC50 [32]: 0.055 µg/mL; IC50 [41]: 0.06 µg/mL
